Results taken from US20260200928A1, “THERAPEUTIC COMPOUNDS” (Sanofi, priority 2022, published 2026).

The compounds below were run against T1, human IL-17A (Homo sapiens, UniProt Q16552) (assay: IL-17A AlphaLISA competition assay (block of IL-17A binding to its receptor IL-17RA)). Conditions: mean IC50 (n≥2), block of IL-17A binding to IL-17RA.
T1 construct: purchased R&D Systems 7955-IL/CF
T1 sequence (Q16552 24-155): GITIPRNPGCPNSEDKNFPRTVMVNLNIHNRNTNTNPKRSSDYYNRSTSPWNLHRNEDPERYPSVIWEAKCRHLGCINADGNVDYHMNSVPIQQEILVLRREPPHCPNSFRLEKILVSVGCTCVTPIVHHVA
Procedure, shortened: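 Bead-based AlphaLISA competition in PBS with 0.05% Tween-20 and 0.1% BSA: compound first meets human IL-17A (7.5 nM stock) for 30 min, then IL-17RA/Fc (5 nM stock) for 90 min, all at room temperature, before acceptor/donor bead capture. IC50 fitted 4-parameter, DMSO and 4 μM reference inhibitor as controls; at least duplicate.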

Structure (SMILES)	IC50 [nM]
CCc1nonc1C(=O)N[C@H](C(=O)Nc1cc([C@@H](COC)N2C[C@@H](C(F)(F)F)NC2=O)ccn1)C1CCC(F)(F)CC1 [Example 187, N—((S)-1-(4,4-Difluorocyclohexyl)-2-((4-((S)-2-methoxy-1-((S)-2-oxo-4-(trifluoromethyl)imidazolidin-1-yl)ethyl)pyridin-2-yl)amino)-2-oxoethyl)-4-ethyl-1,2,5-oxadiazole-3-carboxamide]	17
[2H]C([2H])([2H])C([2H])([2H])n1ccc(C(=O)N[C@H](C(=O)Nc2cc([C@@H](COC)N3C[C@@H](C(F)(F)F)NC3=O)ccn2)C2CCC(F)(F)CC2)n1 [Example 190, N-((S)-1-(4,4-difluorocyclohexyl)-2-((4-((S)-2-methoxy-1-((S)-2-oxo-4-(trifluoromethyl)imidazolidin-1-yl)ethyl)pyridin-2-yl)amino)-2-oxoethyl)-1-(ethyl-d5)-1H-pyrazole-3-carboxamide]	816
COC[C@H](c1ccnc(NC(=O)[C@@H](NC(=O)c2nocc2C2CCC2)C2CCC(F)(F)CC2)c1)N1C[C@@H](C(F)(F)F)NC1=O [Example 191, 4-cyclobutyl-N-((S)-1-(4,4-difluorocyclohexyl)-2-((4-((S)-2-methoxy-1-((S)-2-oxo-4-(trifluoromethyl)imidazolidin-1-yl)ethyl)pyridin-2-yl)amino)-2-oxoethyl)isoxazole-3-carboxamide]	31
COC[C@H](c1ccnc(NC(=O)[C@@H](NC(=O)c2nocc2OCC(F)F)C2CCC(F)(F)CC2)c1)N1C[C@@H](C(F)(F)F)NC1=O [Example 192, N-((S)-1-(4,4-difluorocyclohexyl)-2-((4-((S)-2-methoxy-1-((S)-2-oxo-4-(trifluoromethyl)imidazolidin-1-yl)ethyl)pyridin-2-yl)amino)-2-oxoethyl)-4-(2,2-difluoroethoxy)isoxazole-3-carboxamide]	105
COC[C@H](c1ccnc(NC(=O)[C@@H](NC(=O)c2nonc2OCC(F)(F)F)C2CCC(F)(F)CC2)c1)N1C[C@@H](C(F)(F)F)NC1=O [Example 193, N-((S)-1-(4,4-difluorocyclohexyl)-2-((4-((S)-2-methoxy-1-((S)-2-oxo-4-(trifluoromethyl)imidazolidin-1-yl)ethyl)pyridin-2-yl)amino)-2-oxoethyl)-4-(2,2,2-trifluoroethoxy)-1,2,5-oxadiazole-3-carboxamide]	105
COC[C@H](c1ccnc(NC(=O)[C@@H](NC(=O)c2nonc2C(C)C)C2CCC(F)(F)CC2)c1)N1C[C@@H](C(F)(F)F)NC1=O [Example 195, N-((S)-1-(4,4-difluorocyclohexyl)-2-((4-((S)-2-methoxy-1-((S)-2-oxo-4-(trifluoromethyl)imidazolidin-1-yl)ethyl)pyridin-2-yl)amino)-2-oxoethyl)-4-isopropyl-1,2,5-oxadiazole-3-carboxamide]	18
CCc1nocc1C(=O)N[C@H](C(=O)Nc1cc([C@@H](COC)N2C[C@@H](C(F)(F)F)NC2=O)ccn1)C1CCC(F)(F)CC1 [Example 198, N-((S)-1-(4,4-difluorocyclohexyl)-2-((4-((S)-2-methoxy-1-((S)-2-oxo-4-(trifluoromethyl)imidazolidin-1-yl)ethyl)pyridin-2-yl)amino)-2-oxoethyl)-3-ethylisoxazole-4-carboxamide]	47
COC[C@H](c1ccnc(NC(=O)[C@@H](NC(=O)c2nonc2C)C2CCC(F)(F)CC2)c1)N1C[C@@H](C(F)(F)F)NC1=O [Example 199, N-((S)-1-(4,4-difluorocyclohexyl)-2-((4-((S)-2-methoxy-1-((S)-2-oxo-4-(trifluoromethyl)imidazolidin-1-yl)ethyl)pyridin-2-yl)amino)-2-oxoethyl)-4-methyl-1,2,5-oxadiazole-3-carboxamide]	33
COC[C@H](c1ccnc(NC(=O)[C@@H](NC(=O)c2nonc2C2CC2)C2CCC(F)(F)CC2)c1)N1C[C@@H](C(F)(F)F)NC1=O [Example 200, 4-cyclopropyl-N-((S)-1-(4,4-difluorocyclohexyl)-2-((4-((S)-2-methoxy-1-((S)-2-oxo-4-(trifluoromethyl)imidazolidin-1-yl)ethyl)pyridin-2-yl)amino)-2-oxoethyl)-1,2,5-oxadiazole-3-carboxamide]	18
COC[C@H](c1ccnc(NC(=O)[C@@H](NC(=O)Cc2ccc(OC)nc2)C2CCC(F)(F)CC2)c1)N1C[C@@H](C(F)(F)F)NC1=O [Example 204, (S)-2-(4,4-difluorocyclohexyl)-N-(4-((S)-2-methoxy-1-((S)-2-oxo-4-(trifluoromethyl)imidazolidin-1-yl)ethyl)pyridin-2-yl)-2-(2-(6-methoxypyridin-3-yl)acetamido)acetamide]	129

Other lines, results leading:

IC50 [nM]	Structure (SMILES)
73	COC[C@H](c1ccnc(NC(=O)[C@@H](NC(=O)c2ccnn2C)C2CCC(F)(F)CC2)c1)N1CC(F)(F)CNC1=O [Example 180, N-((S)-2-((4-((S)-1-(5,5-difluoro-2-oxotetrahydropyrimidin-1(2H)-yl)-2-methoxyethyl)pyridin-2-yl)amino)-1-(4,4-difluorocyclohexyl)-2-oxoethyl)-1-methyl-1H-pyrazole-5-carboxamide]
102	COC[C@H](c1ccnc(NC(=O)[C@@H](NC(=O)c2ccnn2C(C)C)C2CCC(F)(F)CC2)c1)N1CC(F)(F)CNC1=O [Example 181, N-((S)-2-((4-((S)-1-(5,5-difluoro-2-oxotetrahydropyrimidin-1(2H)-yl)-2-methoxyethyl)pyridin-2-yl)amino)-1-(4,4-difluorocyclohexyl)-2-oxoethyl)-1-isopropyl-1H-pyrazole-5-carboxamide]
19	CCc1nonc1C(=O)N[C@H](C(=O)Nc1cc([C@@H](COC)N2CC(F)(F)CNC2=O)ccn1)C1CCC(F)(F)CC1 [Example 182, N-((S)-2-((4-((S)-1-(5,5-difluoro-2-oxotetrahydropyrimidin-1(2H)-yl)-2-methoxyethyl)pyridin-2-yl)amino)-1-(4,4-difluorocyclohexyl)-2-oxoethyl)-4-ethyl-1,2,5-oxadiazole-3-carboxamide]
31	COC[C@H](c1ccnc(NC(=O)[C@@H](NC(=O)c2nocc2C(C)C)C2CCC(F)(F)CC2)c1)N1C[C@@H](C(F)(F)F)NC1=O [Example 188, N-((S)-1-(4,4-difluorocyclohexyl)-2-((4-((S)-2-methoxy-1-((S)-2-oxo-4-(trifluoromethyl)imidazolidin-1-yl)ethyl)pyridin-2-yl)amino)-2-oxoethyl)-4-isopropylisoxazole-3-carboxamide]
65	[2H]C([2H])([2H])C([2H])([2H])n1nccc1C(=O)N[C@H](C(=O)Nc1cc([C@@H](COC)N2C[C@@H](C(F)(F)F)NC2=O)ccn1)C1CCC(F)(F)CC1 [Example 189, N-((S)-1-(4,4-difluorocyclohexyl)-2-((4-((S)-2-methoxy-1-((S)-2-oxo-4-(trifluoromethyl)imidazolidin-1-yl)ethyl)pyridin-2-yl)amino)-2-oxoethyl)-1-(ethyl-d5)-1H-pyrazole-5-carboxamide]
68	COC[C@H](c1ccnc(NC(=O)[C@@H](NC(=O)c2conc2C)C2CCC(F)(F)CC2)c1)N1C[C@@H](C(F)(F)F)NC1=O [Example 194, N-((S)-1-(4,4-difluorocyclohexyl)-2-((4-((S)-2-methoxy-1-((S)-2-oxo-4-(trifluoromethyl)imidazolidin-1-yl)ethyl)pyridin-2-yl)amino)-2-oxoethyl)-3-methylisoxazole-4-carboxamide]
39	COC[C@H](c1ccnc(NC(=O)[C@@H](NC(=O)c2nocc2C)C2CCC(F)(F)CC2)c1)N1C[C@@H](C(F)(F)F)NC1=O [Example 196, N-((S)-1-(4,4-difluorocyclohexyl)-2-((4-((S)-2-methoxy-1-((S)-2-oxo-4-(trifluoromethyl)imidazolidin-1-yl)ethyl)pyridin-2-yl)amino)-2-oxoethyl)-4-methylisoxazole-3-carboxamide]
56	COC[C@H](c1ccnc(NC(=O)[C@@H](NC(=O)c2conc2C(C)C)C2CCC(F)(F)CC2)c1)N1C[C@@H](C(F)(F)F)NC1=O [Example 197, N-((S)-1-(4,4-difluorocyclohexyl)-2-((4-((S)-2-methoxy-1-((S)-2-oxo-4-(trifluoromethyl)imidazolidin-1-yl)ethyl)pyridin-2-yl)amino)-2-oxoethyl)-3-isopropylisoxazole-4-carboxamide]
70	CCn1nccc1C(=O)N[C@H](C(=O)Nc1cc([C@@H](COC)N2C[C@@H](C(F)(F)F)NC2=O)ccn1)C1CCC(F)(F)CC1 [Example 201, N-((S)-1-(4,4-difluorocyclohexyl)-2-((4-((S)-2-methoxy-1-((S)-2-oxo-4-(trifluoromethyl)imidazolidin-1-yl)ethyl)pyridin-2-yl)amino)-2-oxoethyl)-1-ethyl-1H-pyrazole-5-carboxamide]
70	COC[C@H](c1ccnc(NC(=O)[C@@H](NC(=O)c2ccnn2C)C2CCC(F)(F)CC2)c1)N1C[C@@H](C(F)(F)F)NC1=O [Example 202, N-((S)-1-(4,4-difluorocyclohexyl)-2-((4-((S)-2-methoxy-1-((S)-2-oxo-4-(trifluoromethyl)imidazolidin-1-yl)ethyl)pyridin-2-yl)amino)-2-oxoethyl)-1-methyl-1H-pyrazole-5-carboxamide]
90	COC[C@H](c1ccnc(NC(=O)[C@@H](NC(=O)c2ccnn2C(C)C)C2CCC(F)(F)CC2)c1)N1C[C@@H](C(F)(F)F)NC1=O [Example 203, N-((S)-1-(4,4-difluorocyclohexyl)-2-((4-((S)-2-methoxy-1-((S)-2-oxo-4-(trifluoromethyl)imidazolidin-1-yl)ethyl)pyridin-2-yl)amino)-2-oxoethyl)-1-isopropyl-1H-pyrazole-5-carboxamide]
